Test results taken from PubChem BioAssay AID1963839 (Molecular Pharmacology Branch, DTP, NCI, 2024).

System: 817829-284-R-J1-PDC complex spheroid viability
Assay: Anticancer human tumor 817829-284-R-J1-PDC patient-derived colon adenocarcinoma cell line growth inhibition [POLQ]
Settings: for IC50: curve of first compound; for viability, T/C: stronger effect = lower value
Method in brief: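 Growth inhibition in 3D: complex spheroids (tumor PDC, HUVEC, MSC) treated with POLQ inhibitor combinations; where Cmax unknown, highest tested concentration 10 microM, except SN-38 at 1 microM.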

[1] = second compound 0.0316 µM, first compound 0.0316 µM
[2] = second compound 0.0316 µM, first compound 0.1 µM
[3] = second compound 0.0316 µM, first compound 0.316 µM
[4] = second compound 0.0316 µM, first compound 1 µM
[5] = second compound 0.0316 µM, first compound 3.16 µM
[6] = second compound 0.0316 µM, first compound 10 µM
[7] = second compound 0.1 µM, first compound 0.0316 µM
[8] = second compound 0.1 µM, first compound 0.1 µM
[9] = second compound 0.1 µM, first compound 0.316 µM
[10] = second compound 0.1 µM, first compound 1 µM
[11] = second compound 0.1 µM, first compound 3.16 µM
[12] = second compound 0.1 µM, first compound 10 µM
[13] = second compound 0.316 µM, first compound 0.0316 µM
[14] = second compound 0.316 µM, first compound 0.1 µM
[15] = second compound 0.316 µM, first compound 0.316 µM
[16] = second compound 0.316 µM, first compound 1 µM
[17] = second compound 0.316 µM, first compound 3.16 µM
[18] = second compound 0.316 µM, first compound 10 µM
[19] = second compound 1 µM, first compound 0.0316 µM
[20] = second compound 1 µM, first compound 0.1 µM
[21] = second compound 1 µM, first compound 0.316 µM
[22] = second compound 1 µM, first compound 1 µM
[23] = second compound 1 µM, first compound 3.16 µM
[24] = second compound 1 µM, first compound 10 µM
[25] = second compound 3.16 µM, first compound 0.0316 µM
[26] = second compound 3.16 µM, first compound 0.1 µM
[27] = second compound 3.16 µM, first compound 0.316 µM
[28] = second compound 3.16 µM, first compound 1 µM
[29] = second compound 3.16 µM, first compound 3.16 µM
[30] = second compound 3.16 µM, first compound 10 µM
[31] = second compound 10 µM, first compound 0.0316 µM
[32] = second compound 10 µM, first compound 0.1 µM
[33] = second compound 10 µM, first compound 0.316 µM
[34] = second compound 10 µM, first compound 1 µM
[35] = second compound 10 µM, first compound 3.16 µM
[36] = second compound 10 µM, first compound 10 µM
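Note: spheroids exposed to compounds for 7 days.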
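Throughout, for viability, T/C: 100% = DMSO vehicle-treated spheroids.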

CC1COCCN1c1cc(-c2ccnn2C)c2ccnc(-c3ccn[nH]3)c2n1 (stereo not drawn) + COC1C(OC(N)=O)C(O)C(Oc2ccc3c(O)c(NC(=O)c4ccc(O)c(CC=C(C)C)c4)c(=O)oc3c2C)OC1(C)C
IC50 (second compound 0.0316 µM): < 31.6 nM | IC50 (second compound 0.1 µM): < 31.6 nM | IC50 (second compound 0.316 µM): < 31.6 nM | IC50 (second compound 1 µM): < 31.6 nM | IC50 (second compound 3.16 µM): < 31.6 nM | IC50 (second compound 10 µM): < 31.6 nM | viability, T/C [1]: 30.4% | viability, T/C [2]: 13.2% | viability, T/C [3]: 5.49% | viability, T/C [4]: 4.46% | viability, T/C [5]: 3.26% | viability, T/C [6]: 3.12% | viability, T/C [7]: 38.1% | viability, T/C [8]: 12.8% | viability, T/C [9]: 4.68% | viability, T/C [10]: 4.07% | viability, T/C [11]: 3.1% | viability, T/C [12]: 3.09% | viability, T/C [13]: 38.2% | viability, T/C [14]: 11.9% | viability, T/C [15]: 5.3% | viability, T/C [16]: 4.05% | viability, T/C [17]: 3.4% | viability, T/C [18]: 2.6% | viability, T/C [19]: 26.4% | viability, T/C [20]: 11.9% | viability, T/C [21]: 5.6% | viability, T/C [22]: 4.46% | viability, T/C [23]: 3.01% | viability, T/C [24]: 2.34% | viability, T/C [25]: 42.2% | viability, T/C [26]: 11% | viability, T/C [27]: 7.02% | viability, T/C [28]: 4.4% | viability, T/C [29]: 2.97% | viability, T/C [30]: 2.67% | viability, T/C [31]: 47.5% | viability, T/C [32]: 13.4% | viability, T/C [33]: 5.44% | viability, T/C [34]: 4.22% | viability, T/C [35]: 3.19% | viability, T/C [36]: 2.65%

CC1COCCN1c1cc(C2(S(C)(=N)=O)CC2)nc(-c2ccnc3[nH]ccc23)n1 (stereo not drawn) + COC1C(OC(N)=O)C(O)C(Oc2ccc3c(O)c(NC(=O)c4ccc(O)c(CC=C(C)C)c4)c(=O)oc3c2C)OC1(C)C
IC50 (second compound 0.0316 µM): 338 nM | IC50 (second compound 0.1 µM): 422 nM | IC50 (second compound 0.316 µM): 363 nM | IC50 (second compound 1 µM): 440 nM | IC50 (second compound 3.16 µM): 169 nM | IC50 (second compound 10 µM): 241 nM | viability, T/C [1]: 85.6% | viability, T/C [2]: 74.6% | viability, T/C [3]: 53.1% | viability, T/C [4]: 19.9% | viability, T/C [5]: 6.56% | viability, T/C [6]: 4.6% | viability, T/C [7]: 98.5% | viability, T/C [8]: 105% | viability, T/C [9]: 58.7% | viability, T/C [10]: 19.9% | viability, T/C [11]: 7.9% | viability, T/C [12]: 4.68% | viability, T/C [13]: 92.7% | viability, T/C [14]: 76.3% | viability, T/C [15]: 56.8% | viability, T/C [16]: 21% | viability, T/C [17]: 6.66% | viability, T/C [18]: 4.27% | viability, T/C [19]: 94.5% | viability, T/C [20]: 110% | viability, T/C [21]: 59.2% | viability, T/C [22]: 23.4% | viability, T/C [23]: 9.79% | viability, T/C [24]: 4.86% | viability, T/C [25]: 89.9% | viability, T/C [26]: 60.2% | viability, T/C [27]: 37.9% | viability, T/C [28]: 20.8% | viability, T/C [29]: 8.42% | viability, T/C [30]: 4.19% | viability, T/C [31]: 111% | viability, T/C [32]: 63.3% | viability, T/C [33]: 51.7% | viability, T/C [34]: 24.6% | viability, T/C [35]: 9.19% | viability, T/C [36]: 4.6%

COc1ccc([C@@H](O)c2cc(-c3ncnc4cc(N5CCOCC5)ccc34)c(F)cc2Cl)nn1 + COC1C(OC(N)=O)C(O)C(Oc2ccc3c(O)c(NC(=O)c4ccc(O)c(CC=C(C)C)c4)c(=O)oc3c2C)OC1(C)C
IC50 (second compound 0.0316 µM): 678 nM | IC50 (second compound 0.1 µM): 1040 nM | IC50 (second compound 0.316 µM): 797 nM | IC50 (second compound 1 µM): 1010 nM | IC50 (second compound 3.16 µM): 497 nM | IC50 (second compound 10 µM): 579 nM | viability, T/C [1]: 111% | viability, T/C [2]: 61.9% | viability, T/C [3]: 76.9% | viability, T/C [4]: 44.5% | viability, T/C [5]: 22.8% | viability, T/C [6]: 11.9% | viability, T/C [7]: 117% | viability, T/C [8]: 79.6% | viability, T/C [9]: 68.8% | viability, T/C [10]: 55% | viability, T/C [11]: 26.6% | viability, T/C [12]: 18.5% | viability, T/C [13]: 98.7% | viability, T/C [14]: 86% | viability, T/C [15]: 58.4% | viability, T/C [16]: 53.9% | viability, T/C [17]: 25.5% | viability, T/C [18]: 18.9% | viability, T/C [19]: 102% | viability, T/C [20]: 88.8% | viability, T/C [21]: 89.4% | viability, T/C [22]: 49.2% | viability, T/C [23]: 25.9% | viability, T/C [24]: 18.9% | viability, T/C [25]: 97.1% | viability, T/C [26]: 86% | viability, T/C [27]: 59.6% | viability, T/C [28]: 34.2% | viability, T/C [29]: 22.3% | viability, T/C [30]: 16% | viability, T/C [31]: 135% | viability, T/C [32]: 62.2% | viability, T/C [33]: 80% | viability, T/C [34]: 43.9% | viability, T/C [35]: 27.4% | viability, T/C [36]: 16.2%

Cn1ncnc1[C@H]1c2n[nH]c(=O)c3cc(F)cc(c23)N[C@@H]1c1ccc(F)cc1 + COC1C(OC(N)=O)C(O)C(Oc2ccc3c(O)c(NC(=O)c4ccc(O)c(CC=C(C)C)c4)c(=O)oc3c2C)OC1(C)C
IC50 (second compound 0.0316 µM): 31 nM | IC50 (second compound 0.1 µM): 4.86 nM | IC50 (second compound 0.316 µM): 19.8 nM | IC50 (second compound 1 µM): 24 nM | IC50 (second compound 3.16 µM): 10.2 nM | IC50 (second compound 10 µM): 31 nM | viability, T/C (second compound 0.0316 µM, first compound 0.000316 µM): 107% | viability, T/C (second compound 0.0316 µM, first compound 0.001 µM): 63.2% | viability, T/C (second compound 0.0316 µM, first compound 0.00316 µM): 72.3% | viability, T/C (second compound 0.0316 µM, first compound 0.01 µM): 62.6% | viability, T/C [1]: 55.5% | viability, T/C [2]: 36.5% | viability, T/C (second compound 0.1 µM, first compound 0.000316 µM): 103% | viability, T/C (second compound 0.1 µM, first compound 0.001 µM): 109% | viability, T/C (second compound 0.1 µM, first compound 0.00316 µM): 52.9% | viability, T/C (second compound 0.1 µM, first compound 0.01 µM): 60.4% | viability, T/C [7]: 39.9% | viability, T/C [8]: 35.4% | viability, T/C (second compound 0.316 µM, first compound 0.000316 µM): 104% | viability, T/C (second compound 0.316 µM, first compound 0.001 µM): 94.9% | viability, T/C (second compound 0.316 µM, first compound 0.00316 µM): 74.4% | viability, T/C (second compound 0.316 µM, first compound 0.01 µM): 65.3% | viability, T/C [13]: 38% | viability, T/C [14]: 36.2% | viability, T/C (second compound 1 µM, first compound 0.000316 µM): 94.9% | viability, T/C (second compound 1 µM, first compound 0.001 µM): 107% | viability, T/C (second compound 1 µM, first compound 0.00316 µM): 85.4% | viability, T/C (second compound 1 µM, first compound 0.01 µM): 65% | viability, T/C [19]: 47.8% | viability, T/C [20]: 31.8% | viability, T/C (second compound 3.16 µM, first compound 0.000316 µM): 86.8% | viability, T/C (second compound 3.16 µM, first compound 0.001 µM): 102% | viability, T/C (second compound 3.16 µM, first compound 0.00316 µM): 97.7% | viability, T/C (second compound 3.16 µM, first compound 0.01 µM): 50.1% | viability, T/C [25]: 49.9% | viability, T/C [26]: 40.3% | viability, T/C (second compound 10 µM, first compound 0.000316 µM): 137% | viability, T/C (second compound 10 µM, first compound 0.001 µM): 124% | viability, T/C (second compound 10 µM, first compound 0.00316 µM): 69.8% | viability, T/C (second compound 10 µM, first compound 0.01 µM): 71.6% | viability, T/C [31]: 67.2% | viability, T/C [32]: 22.3%
